One test deals with CFTR. On the set-up: method as in PMID 36949202. As to conditions: cited from earlier work; for effect on channel activity: by increasing pore opening while the NBDs are dimerized.
For test [1], the target named is T1, WT CFTR (Homo sapiens, UniProt P13569).
T1 construct: GFP (PreScission Protease-cleavable) (C, cleaved yes); made in house; host or cells: HEK293S GnTI- suspension cells infected with BacMam baculovirus
Put plainly: Inside-out excised patch macroscopic current recording, WT CFTR. The format is biochemical. The note with it: inside-out patches, 3 mM ATP.

In test [2] the target is T2, CFTR (E1371Q) (Homo sapiens, UniProt P13569, E1371Q).
T2 construct: expressed in transfected cells; host or cells: CHO-K1 (ATCC CCL-61)
T2 sequence (P13569 whole entry E1371Q): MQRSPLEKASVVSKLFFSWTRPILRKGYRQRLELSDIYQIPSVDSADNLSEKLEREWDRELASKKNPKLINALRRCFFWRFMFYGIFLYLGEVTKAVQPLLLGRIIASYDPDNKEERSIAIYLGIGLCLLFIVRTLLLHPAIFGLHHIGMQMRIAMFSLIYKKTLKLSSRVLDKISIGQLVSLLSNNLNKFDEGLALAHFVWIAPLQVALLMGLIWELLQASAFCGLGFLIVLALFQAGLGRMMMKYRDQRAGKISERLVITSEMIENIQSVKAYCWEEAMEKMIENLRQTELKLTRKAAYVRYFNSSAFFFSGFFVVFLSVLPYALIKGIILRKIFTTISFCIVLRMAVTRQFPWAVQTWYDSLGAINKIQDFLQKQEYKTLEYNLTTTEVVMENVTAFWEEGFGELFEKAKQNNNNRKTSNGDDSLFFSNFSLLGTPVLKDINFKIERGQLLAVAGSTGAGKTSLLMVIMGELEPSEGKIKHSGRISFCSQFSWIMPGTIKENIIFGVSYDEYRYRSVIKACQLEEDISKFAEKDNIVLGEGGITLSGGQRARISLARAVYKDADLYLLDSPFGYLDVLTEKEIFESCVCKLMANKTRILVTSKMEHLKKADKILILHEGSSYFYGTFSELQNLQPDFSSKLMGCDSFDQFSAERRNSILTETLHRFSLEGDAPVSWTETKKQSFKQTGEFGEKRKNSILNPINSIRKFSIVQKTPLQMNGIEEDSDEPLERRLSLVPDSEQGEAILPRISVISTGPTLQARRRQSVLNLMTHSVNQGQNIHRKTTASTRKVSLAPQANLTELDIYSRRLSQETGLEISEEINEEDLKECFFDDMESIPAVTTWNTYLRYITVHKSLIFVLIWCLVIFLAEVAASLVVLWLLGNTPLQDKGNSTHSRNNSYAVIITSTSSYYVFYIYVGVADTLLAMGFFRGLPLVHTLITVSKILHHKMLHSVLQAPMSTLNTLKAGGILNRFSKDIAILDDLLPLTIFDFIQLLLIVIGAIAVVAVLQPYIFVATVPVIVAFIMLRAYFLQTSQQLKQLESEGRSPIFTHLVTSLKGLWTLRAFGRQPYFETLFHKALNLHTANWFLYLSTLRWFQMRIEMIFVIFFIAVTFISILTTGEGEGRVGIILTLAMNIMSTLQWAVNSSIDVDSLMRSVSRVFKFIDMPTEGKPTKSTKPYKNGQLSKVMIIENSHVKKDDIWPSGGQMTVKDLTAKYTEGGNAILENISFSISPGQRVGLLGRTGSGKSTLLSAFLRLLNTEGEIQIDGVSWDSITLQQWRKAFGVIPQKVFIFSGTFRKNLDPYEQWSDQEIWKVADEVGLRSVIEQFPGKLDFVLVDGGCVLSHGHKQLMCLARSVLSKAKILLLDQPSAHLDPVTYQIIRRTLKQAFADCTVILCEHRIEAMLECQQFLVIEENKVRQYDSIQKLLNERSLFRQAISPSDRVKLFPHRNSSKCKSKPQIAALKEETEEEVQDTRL
Put plainly: Inside-out excised patch macroscopic current recording, CFTR (E1371Q). The note with it: 10 µM CFTRinh-172; inside-out patches; PKA-phosphorylated, 3 mM ATP. The format is biochemical.

Another test addresses T3, K95A CFTR (Homo sapiens, UniProt P13569, K95A).
T3 construct: expressed in transfected cells; host or cells: CHO-K1 (ATCC CCL-61)
Put plainly: Inside-out excised patch titration, K95A CFTR. Format: biochemical. As to conditions: inside-out patches, 3 mM ATP, Hill coefficient fixed to 1.

A further test deals with T4, T1142I CFTR (Homo sapiens, UniProt P13569, T1142I).
T4 construct: expressed in transfected cells; host or cells: CHO-K1 (ATCC CCL-61)
T4 sequence (P13569 whole entry T1142I): as the sequence (P13569 whole entry E1371Q) above, with T1142I, Q1371E counted along it
Put plainly: Inside-out excised patch titration, T1142I CFTR. The note with it: inside-out patches, 3 mM ATP, Hill coefficient fixed to 1. Format: biochemical.

The next test has as its target T5, S1141A CFTR (Homo sapiens, UniProt P13569, S1141A).
T5 construct: expressed in transfected cells; host or cells: CHO-K1 (ATCC CCL-61)
Description: Inside-out excised patch titration, S1141A CFTR. Format: biochemical. The note with it: inside-out patches, 3 mM ATP.

Test [3] has as its target T1, WT CFTR. Description: Single-channel recording in synthetic planar lipid bilayer, WT CFTR. The format is biochemical.
In test [4] the target is T2, CFTR (E1371Q). Description: Single-channel recording in synthetic planar lipid bilayer, CFTR (E1371Q). As to conditions: 10 µM CFTRinh-172, 3 mM ATP, -150 mV, mean and SE, 0.79 ± 0.03 without inhibitor. Format: biochemical.
Test [5] concerns the target T6, PKA-phosphorylated WT CFTR (Homo sapiens, UniProt P13569).
T6 construct: GFP (PreScission Protease-cleavable) (C, cleaved yes); made in house; host or cells: HEK293S GnTI- suspension cells infected with BacMam baculovirus
Description: Steady-state ATP hydrolysis, NADH-coupled assay. The format is biochemical. The note with it: 10 µM CFTRinh-172.

Test [6] has as its target T7, WT CFTR (Homo sapiens, UniProt P13569, C128S/C1344S/C1355S/C1395S/C1400S/C1410S/C1458S/C225S/C276S/C343S/C491S/C592M/C647S/C76L/C832S/C866S/S1435C/T388C).
T7 construct: GFP (PreScission Protease-cleavable) (C); made in house; host or cells: HEK293S GnTI- suspension cells infected with BacMam baculovirus
Description: smFRET imaging of NBD dimerization, WT CFTR. The format is biochemical. The note with it: 10 µM CFTRinh-172, 3 mM ATP.

The target of test [7] is T8, CFTR (E1371Q) (Homo sapiens, UniProt P13569, C128S/C1344S/C1355S/C1395S/C1400S/C1410S/C1458S/C225S/C276S/C343S/C491S/C592M/C647S/C76L/C832S/C866S/E1371Q/S1435C/T388C).
T8 construct: GFP (PreScission Protease-cleavable) (C); made in house; host or cells: HEK293S GnTI- suspension cells infected with BacMam baculovirus
T8 sequence (P13569 1-1480 with the stated changes): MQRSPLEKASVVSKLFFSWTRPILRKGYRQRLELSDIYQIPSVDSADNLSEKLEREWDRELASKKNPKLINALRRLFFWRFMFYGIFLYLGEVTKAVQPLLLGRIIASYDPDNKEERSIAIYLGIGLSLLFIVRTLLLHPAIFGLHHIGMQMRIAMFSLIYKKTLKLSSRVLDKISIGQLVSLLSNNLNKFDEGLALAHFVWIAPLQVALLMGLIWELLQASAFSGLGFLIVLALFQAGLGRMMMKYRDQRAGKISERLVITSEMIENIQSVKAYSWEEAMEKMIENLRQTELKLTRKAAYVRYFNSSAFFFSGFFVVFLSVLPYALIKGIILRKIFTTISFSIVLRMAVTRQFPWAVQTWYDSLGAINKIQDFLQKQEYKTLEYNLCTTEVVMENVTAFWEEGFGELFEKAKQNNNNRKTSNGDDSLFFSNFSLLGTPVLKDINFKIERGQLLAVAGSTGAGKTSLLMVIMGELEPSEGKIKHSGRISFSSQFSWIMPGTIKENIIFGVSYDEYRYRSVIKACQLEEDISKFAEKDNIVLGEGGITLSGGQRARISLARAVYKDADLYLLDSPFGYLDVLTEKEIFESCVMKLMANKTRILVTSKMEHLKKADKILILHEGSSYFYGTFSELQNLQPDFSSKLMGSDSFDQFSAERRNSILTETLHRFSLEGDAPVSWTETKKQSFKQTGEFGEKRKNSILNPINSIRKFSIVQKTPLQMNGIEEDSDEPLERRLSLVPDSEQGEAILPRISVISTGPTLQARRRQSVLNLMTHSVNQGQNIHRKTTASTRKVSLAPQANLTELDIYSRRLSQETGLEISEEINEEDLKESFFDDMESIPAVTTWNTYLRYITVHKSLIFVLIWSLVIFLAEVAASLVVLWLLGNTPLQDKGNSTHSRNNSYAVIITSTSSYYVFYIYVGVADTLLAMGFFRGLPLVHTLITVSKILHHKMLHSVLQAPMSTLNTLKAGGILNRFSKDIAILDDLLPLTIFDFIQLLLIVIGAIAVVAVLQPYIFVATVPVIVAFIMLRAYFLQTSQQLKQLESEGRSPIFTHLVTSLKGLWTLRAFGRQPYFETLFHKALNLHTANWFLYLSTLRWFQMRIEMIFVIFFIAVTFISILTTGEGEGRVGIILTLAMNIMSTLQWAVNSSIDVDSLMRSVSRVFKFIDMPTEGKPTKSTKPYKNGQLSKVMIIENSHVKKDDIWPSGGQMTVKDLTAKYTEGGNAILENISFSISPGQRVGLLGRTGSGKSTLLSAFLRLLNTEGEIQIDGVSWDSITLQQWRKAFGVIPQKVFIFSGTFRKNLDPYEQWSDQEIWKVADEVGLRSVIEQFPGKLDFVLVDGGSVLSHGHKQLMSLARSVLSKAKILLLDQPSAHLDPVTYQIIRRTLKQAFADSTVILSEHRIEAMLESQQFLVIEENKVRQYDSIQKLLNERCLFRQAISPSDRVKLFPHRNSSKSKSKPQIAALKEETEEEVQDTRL
Description: smFRET imaging of NBD dimerization, CFTR (E1371Q). The note with it: with CFTRinh-172. The format is biochemical.

A further test concerns CFTR R347A. Details: method as in PMID 18366345. The note with it: R347A vs WT CFTR; cited from earlier work.
A further test has as its system CFTR R347D. On the set-up: method as in PMID 18366345. The note with it: cited from earlier work.
Test [8] concerns cholera toxin-induced intestinal fluid secretion. The note with it: in vivo; cited from earlier work.
For another test, the system named is cyst growth. Details: method as in PMID 18385427. The note with it: animal models of polycystic kidney disease; cited from earlier work.

T1 sequence (P13569 whole entry): as the sequence (P13569 whole entry E1371Q) above, with Q1371E counted along it
T6 sequence (P13569 whole entry): as the sequence (P13569 whole entry E1371Q) above, with Q1371E counted along it
T7 sequence (P13569 1-1480 with the stated changes): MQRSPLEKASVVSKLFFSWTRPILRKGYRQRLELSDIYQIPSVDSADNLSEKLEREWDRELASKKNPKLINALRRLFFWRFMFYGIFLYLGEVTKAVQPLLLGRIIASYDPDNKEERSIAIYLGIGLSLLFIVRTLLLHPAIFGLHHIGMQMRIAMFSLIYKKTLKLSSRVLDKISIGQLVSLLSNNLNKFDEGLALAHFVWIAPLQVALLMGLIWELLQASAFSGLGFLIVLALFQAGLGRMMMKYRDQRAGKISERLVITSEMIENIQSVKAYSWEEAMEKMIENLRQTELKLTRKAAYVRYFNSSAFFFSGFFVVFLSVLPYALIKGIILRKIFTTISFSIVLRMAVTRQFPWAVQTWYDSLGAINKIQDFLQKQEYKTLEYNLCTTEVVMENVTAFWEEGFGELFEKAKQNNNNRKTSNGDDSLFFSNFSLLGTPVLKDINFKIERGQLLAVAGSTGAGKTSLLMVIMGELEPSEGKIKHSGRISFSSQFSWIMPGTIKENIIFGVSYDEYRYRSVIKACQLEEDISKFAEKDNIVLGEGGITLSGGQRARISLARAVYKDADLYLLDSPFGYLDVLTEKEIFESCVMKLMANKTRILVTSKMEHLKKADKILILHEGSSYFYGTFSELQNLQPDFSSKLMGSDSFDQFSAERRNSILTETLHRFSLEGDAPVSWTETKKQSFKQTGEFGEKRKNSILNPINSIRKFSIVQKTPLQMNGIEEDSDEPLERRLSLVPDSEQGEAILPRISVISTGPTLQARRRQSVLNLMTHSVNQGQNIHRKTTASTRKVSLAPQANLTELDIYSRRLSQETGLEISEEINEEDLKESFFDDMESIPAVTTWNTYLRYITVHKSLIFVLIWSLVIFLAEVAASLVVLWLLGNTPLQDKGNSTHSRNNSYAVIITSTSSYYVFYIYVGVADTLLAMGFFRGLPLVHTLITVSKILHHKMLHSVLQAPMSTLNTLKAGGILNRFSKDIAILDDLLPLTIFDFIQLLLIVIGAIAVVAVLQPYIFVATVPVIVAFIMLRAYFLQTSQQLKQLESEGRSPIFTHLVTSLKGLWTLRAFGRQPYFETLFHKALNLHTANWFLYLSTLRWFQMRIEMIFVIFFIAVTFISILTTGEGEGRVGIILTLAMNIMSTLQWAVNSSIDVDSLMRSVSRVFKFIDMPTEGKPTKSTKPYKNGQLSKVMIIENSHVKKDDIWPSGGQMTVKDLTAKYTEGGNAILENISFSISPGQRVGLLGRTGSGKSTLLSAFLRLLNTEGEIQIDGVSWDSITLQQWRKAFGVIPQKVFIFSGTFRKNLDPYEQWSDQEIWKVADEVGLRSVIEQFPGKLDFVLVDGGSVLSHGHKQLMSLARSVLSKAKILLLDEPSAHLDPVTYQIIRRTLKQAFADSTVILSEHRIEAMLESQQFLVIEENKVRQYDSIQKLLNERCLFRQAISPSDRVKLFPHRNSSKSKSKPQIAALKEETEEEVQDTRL
T5 sequence (P13569 whole entry S1141A): as the sequence (P13569 whole entry E1371Q) above, with S1141A, Q1371E counted along it
T3 sequence (P13569 whole entry K95A): as the sequence (P13569 whole entry E1371Q) above, with K95A, Q1371E counted along it

Consider `CC1(C)Cc2c(sc(NC(=O)c3ccn[nH]3)c2C(N)=O)C(C)(C)O1` [GLPG1837, N-(3-Carbamoyl-5,5,7,7-tetramethyl-5,7-dihydro-4H-thieno[2,3-c]pyran-2-yl)-lH-pyrazole-5-carboxamide], for which, in the test on CFTR, the “effect on channel activity” value is reported as “enhance channel activity” and the “effect on ATP turnover” value is recorded as “increase ATP turnover”.
In the case of `CC(C)(C)c1cc(C(C)(C)C)c(NC(=O)c2c[nH]c3ccccc3c2=O)cc1O` [Ivacaftor, N-(2,4-Di-tert-butyl-5-hydroxyphenyl)-4-oxo-1,4-dihydroquinoline-3-carboxamide], in the test with CFTR, the “effect on channel activity” value is “enhance channel activity” and the “effect on ATP turnover” value was “increase ATP turnover”.
What is called IC50 is the concentration that gives 50% inhibition. The low end stands for greater potency, the high end for weaker potency. In the case of `O=C(O)c1ccc(/C=C2\SC(=S)N(c3cccc(C(F)(F)F)c3)C2=O)cc1` [CFTRinh-172], the “reduction of macroscopic current” value on WT CFTR [1] (10 µM CFTRinh-172, PKA-phosphorylated) amounted to 96%. Besides, the half-inhibitory concentration (IC50) on WT CFTR [1] (WT CFTR, Hill coefficient fixed to 1) was determined as 0.6 ± 0.1 µM; at K95A CFTR, 3.5 ± 0.9 µM; against T1142I CFTR, 5.3 ± 3.1 µM. In addition, the “inhibition of macroscopic current relative to WT CFTR” value on CFTR (E1371Q) [2] is reported as “comparable level of inhibition”. Also, the “effect of S1141A substitution on inhibitory potency” value at S1141A CFTR is reported as “no effect on inhibitory potency”. Also, the open probability was 0.007 ± 0.003 on WT CFTR [3] (10 µM CFTRinh-172, 3 mM ATP, -150 mV, mean and SE, 0.21 ± 0.05 without inhibitor); 0.0011 ± 0.0004 on CFTR (E1371Q) [4]. Further, the “mean open dwell time” value at WT CFTR [3] (with CFTRinh-172, 3 mM ATP, 487 ± 92 ms without inhibitor) was determined as 109 ± 14 ms. Also, in test [5], the “change of Michaelis-Menten constant (Km) for ATP” value is “not significantly changed”. The “saturating ATP turnover (kcat)” value in [5] (22.0 ± 2.2 without inhibitor) was 5.2 ± 1.0 ATP/protein/min. The “effect on dwell time of the NBD-dimerized state” value on WT CFTR [6] is listed as “did not significantly affect”. For the same compound, the “effect on probability of NBD dimerization” value at WT CFTR [6] was “did not significantly affect”. Moreover, the “effect on conformational dynamics” value on CFTR (E1371Q) [7] is given as “did not affect”. In the test with CFTR R347A, the “decrease in potency on substitution of R347 with alanine” value was “over 30 fold”. Besides, in the test with CFTR R347D, the “effect of R347D substitution on inhibition” value is given as “nearly eliminated its inhibitory effect”. In test [8], the “cholera toxin-induced intestinal fluid secretion” value is “block cholera toxin-induced intestinal fluid secretion”. Also, the cyst growth result in the test with cyst growth is on record as “suppress cyst growth”.

Source of the values: publication PMC10927578, “Structural basis for CFTR inhibition by CFTRinh-172” (Proceedings of the National Academy of Sciences of the …, 2024).
